# Source: ChEMBL document CHEMBL4825753 (J Med Chem, 2021)
# pIC50: −log10 of the molar value. The source made the active and inactive calls. The rule behind the calls is not given here.
# Tests used:
# [1] = molecular target: T1, Tyrosine-protein kinase Mer (Homo sapiens, UniProt Q12866); experiment: Inhibition of MER (unknown origin) by LC-MS analysis
# T1 sequence (Q12866 whole entry): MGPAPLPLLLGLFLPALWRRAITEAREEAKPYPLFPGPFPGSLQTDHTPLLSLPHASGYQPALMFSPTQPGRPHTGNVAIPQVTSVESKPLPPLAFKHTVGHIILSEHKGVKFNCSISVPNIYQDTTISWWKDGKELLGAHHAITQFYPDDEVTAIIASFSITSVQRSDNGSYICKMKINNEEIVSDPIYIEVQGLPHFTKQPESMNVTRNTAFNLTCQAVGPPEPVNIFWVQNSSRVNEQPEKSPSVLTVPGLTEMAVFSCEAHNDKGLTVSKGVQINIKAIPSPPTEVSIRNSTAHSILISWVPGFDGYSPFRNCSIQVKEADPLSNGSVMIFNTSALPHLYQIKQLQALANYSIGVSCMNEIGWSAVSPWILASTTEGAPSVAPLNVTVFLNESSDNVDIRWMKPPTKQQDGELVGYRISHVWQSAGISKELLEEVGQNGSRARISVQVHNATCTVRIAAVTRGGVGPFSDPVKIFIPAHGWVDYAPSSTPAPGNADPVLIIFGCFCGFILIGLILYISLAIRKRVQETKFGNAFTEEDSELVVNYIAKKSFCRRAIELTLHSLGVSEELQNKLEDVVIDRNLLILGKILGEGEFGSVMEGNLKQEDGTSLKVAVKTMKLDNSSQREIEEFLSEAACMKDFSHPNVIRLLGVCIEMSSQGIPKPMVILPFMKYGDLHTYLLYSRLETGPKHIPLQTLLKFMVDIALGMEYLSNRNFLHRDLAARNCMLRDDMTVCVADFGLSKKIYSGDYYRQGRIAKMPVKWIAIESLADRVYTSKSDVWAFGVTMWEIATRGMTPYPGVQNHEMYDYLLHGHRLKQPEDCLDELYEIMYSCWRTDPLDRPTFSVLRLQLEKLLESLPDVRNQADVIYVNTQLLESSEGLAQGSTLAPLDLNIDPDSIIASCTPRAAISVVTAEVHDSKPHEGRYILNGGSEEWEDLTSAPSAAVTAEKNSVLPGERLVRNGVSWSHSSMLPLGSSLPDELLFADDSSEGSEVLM
# [2] = Photostability of compound assessed as half life; assay type: physicochemical
# BaF3 [3] = experiment: Growth inhibition of mouse BaF3 cells transfected with MER assessed as inhibition of cell growth incubated for 72 hrs by Cell-titer-Glo assay; assay type: functional
# BaF3 [4] = experiment: Growth inhibition of mouse BaF3 cells transfected with AXL assessed as inhibition of cell growth incubated for 72 hrs by Cell-titer-Glo assay; assay type: functional
# BaF3 [5] = experiment: Growth inhibition of mouse BaF3 cells transfected with FLT3 assessed as inhibition of cell growth incubated for 72 hrs by Cell-titer-Glo assay; assay type: functional
# BaF3 [6] = experiment: Growth inhibition of mouse BaF3 cells transfected with Tyro3 assessed as inhibition of cell growth incubated for 72 hrs by Cell-titer-Glo assay; assay type: functional
# BaF3 [7] = experiment: Growth inhibition of mouse BaF3 cells assessed as inhibition of cell growth incubated for 72 hrs by Cell-titer-Glo assay; assay type: functional
# BaF3 [8] = experiment: Antitumour activity against mouse BaF3 cells transfected with MER implanted in C57BL/6J mouse assessed as reduction in tumour growth at 100 mg/kg, po bid for 6 days; assay type: functional, organism-based; conditions: time 6.0 day
# BaF3 [9] = experiment: Antitumour activity against mouse BaF3 cells transfected with AXL implanted in C57BL/6J mouse assessed as reduction in tumour growth at 3 to 100 mg/kg, po bid for 6 days; assay type: functional, organism-based; conditions: dose 3-100 mg/kg, time 6.0 day
# [10] = Fraction unbound in C57BL/6J mouse implanted with mouse BaF3 cells transfected with MER in at 3 to 100 mg/kg, po bid for 6 days; assay type: ADME, organism-based; conditions: in vivo, dose 3-100 mg/kg, time 6 day
# [11] = Fraction unbound in C57BL/6J mouse implanted with mouse BaF3 cells transfected with AXL in at 3 to 100 mg/kg, po bid for 6 days; assay type: ADME, organism-based; conditions: in vivo, dose 3-100 mg/kg, time 6 day
# BaF3 [12] = experiment: Antitumour activity against mouse BaF3 cells transfected with MER implanted in C57BL/6J mouse assessed as reduction in MER phosphorylation at 30 to 100 mg/kg, po bid for 6 days by western blot analysis; assay type: functional, organism-based; conditions: dose 30-100 mg/kg, time 6.0 day
# BaF3 [13] = experiment: Antitumour activity against mouse BaF3 cells transfected with AXL implanted in C57BL/6J mouse assessed as reduction in AXL phosphorylation at 30 to 100 mg/kg, po bid for 6 days western blot analysis; assay type: functional, organism-based; conditions: dose 30-100 mg/kg, time 6.0 day
# MC-38 = experiment: Antitumour activity against mouse MC38 cells implanted in C57BL6 mouse assessed as increase in survival at 100 mg/kg, po bid for 2 weeks co-treatment with anti-PD1 further treated with ionizing radiation; assay type: functional, organism-based
pIC50 [1],half-life [2],GI50 (BaF3 [3]),GI50 (BaF3 [4]),GI50 (BaF3 [5]),GI50 (BaF3 [6]),GI50 (BaF3 [7]),fraction unbound at 144 h [10],fraction unbound at 144 h [11],Structure (SMILES),Activity (BaF3 [8]),Activity (BaF3 [9]),Activity (BaF3 [12]),Activity (BaF3 [13]),Activity (MC-38)
7.00,–,–,–,–,–,–,–,–,Cc1cc(-c2c(C)nn(C)c2C)cnc1-c1nnc(N(C)Cc2ccc3nccn3c2)o1,–,–,–,–,–
8.50,69 h,–,–,–,–,–,–,–,Cc1cc(-c2c(C)nn(C)c2C)ccc1-c1nnc(N(C)Cc2ccc3nccn3c2)o1,–,–,–,–,–
–,–,25.1 nM,100 nM,3160 nM,5010 nM,3980 nM,0.076,0.076,Cc1cc(-c2c(C)nn(C)c2C)cnc1-c1nnc(N(C)Cc2ccc3ncc(-c4ccc(CN(C)C)cc4)n3c2)o1,Active,Active,Active,Active,Active
